According to the supplement of paper PMC11208160:

experiment: recombinant barcode read abundance after kanamycin selection (control-corrected) (log10(CPM+1)); higher = more efficient recombination; sequences stand for … in AGTGCAGAGAAAATCGGCCAGTTTTCTCTGCCTGCAGTCCGCATGCCGT…AGATTTATGCAGCGGACTGCCTTTCTCCCAAAGTGATAAACCGGACAGTATCATGGACCGGTTTTCCCGGTAATCCGTATTTGCAAGGTTGGTTTCACT; site = the 11-nt target
In short: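 The screen was pooled in E. coli and paired targets with IS621 bridge RNA target-binding loops. Recombination efficiency is taken from barcode counts per million at recombinant junctions, averaged and adjusted against the control. Values, in the form log10(CPM+1), come from duplicate plating on chloramphenicol/ampicillin LB agar or on chloramphenicol/ampicillin/kanamycin with 0.1 mM IPTG.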
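Further: IS621 recombinase and bridge RNA in Escherichia coli cells.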

Going from “TCCTAACCTTGGGTTCTAACCTGTTGCTG (site ACCTAACCTCT)” to “TCCTAACCTTGGGTTCTAACCTGTTGCTG (site TCCTAACCTCA)”, the “recombinant barcode read abundance (log10)” value rises from 0.0586 to 1.37.

Compared with “TCCTAATCTTGGGTTCTAACCTGTTGCAT (site TCCTAACCTAG)”, “TCCTAATCTTGGGTTCTAACCTGTTGCAT (site TCCTAATCTAT)” is higher in “recombinant barcode read abundance (log10)” value: 0.0364 for the first, 0.607 for the second.

Going from “TCCTACCCTTGGGTTCTAACCTGTTGCCT (site TACTACCCTAG)” to “TCCTACCCTTGGGTTCTAACCTGTTGCCT (site TCCTACCCTAG)”, the “recombinant barcode read abundance (log10)” value rises from 0.0977 to 1.36.

Compared with “TCCTACCCTTGGGTTCTAACCTGTTGCCT (site TGCTACCCTAG)”, “TCCTACCCTTGGGTTCTAACCTGTTGCCT (site TTCTACCCTAG)” is higher in “recombinant barcode read abundance (log10)” value: 0.052 for the first, 0.271 for the second.

First: TCCTACTCTTGGGTTCTAACCTGTTGCCG (site TCCGACTCTCG)
Second: TCCTACTCTTGGGTTCTAACCTGTTGCCG (site TCCTACTCTCG)
The “recombinant barcode read abundance (log10)” value of the first is lower: 0.0792 for the first, 0.688 for the second.

Compared with “TCCTAGACTTGGGTTCTAACCTGTTGCGG (site TCCTAGACTCC)”, “TCCTAGACTTGGGTTCTAACCTGTTGCGG (site TTCTAGACTCC)” is lower in “recombinant barcode read abundance (log10)” value: 1.53 for the first, 0.117 for the second.

First: TCCTAGGCTTGGGTTCTAACCTGTTGCGC (site TCCTAGGCTGC)
Second: TCCTAGGCTTGGGTTCTAACCTGTTGCGC (site TCTTAGGCTAC)
The “recombinant barcode read abundance (log10)” value of the first is higher: 1.72 for the first, 0.161 for the second.

“TCCTATGCTTGGGTTCTAACCTGTTGCTA (site CAAGTGACTAG)” and “TCCTATGCTTGGGTTCTAACCTGTTGCTA (site TCCTATGCTTA)” are within 0.2 log units of each other in “recombinant barcode read abundance (log10)” value: 0.0648 for the first, 0.0755 for the second.

First: TCCTATTCTTGGGTTCTAACCTGTTGCGA (site TACTATGCTTC)
Second: TCCTATTCTTGGGTTCTAACCTGTTGCGA (site TCCTATTCTTC)
The “recombinant barcode read abundance (log10)” value of the first is lower: 0.141 for the first, 0.544 for the second.

“TCCTGGGCTTGGGTTCTAACCTGTTGCCG (site TCCTGGGCTCG)” and “TCCTGGGCTTGGGTTCTAACCTGTTGCCG (site TTATGGGCTCG)” are within 0.2 log units of each other in “recombinant barcode read abundance (log10)” value: 0.0509 for the first, 0.0305 for the second.

First: TCCTGTACTTGGGTTCTAACCTGTTGCAT (site TCCAGTACTAT)
Second: TCCTGTACTTGGGTTCTAACCTGTTGCAT (site TCCCGTACTAT)
The “recombinant barcode read abundance (log10)” value of the first is lower: 0.272 for the first, 0.705 for the second.

Compared with “TCCTGTACTTGGGTTCTAACCTGTTGCAT (site TCCGGTACTAT)”, “TCCTGTACTTGGGTTCTAACCTGTTGCAT (site TCCTGTACTAT)” is higher in “recombinant barcode read abundance (log10)” value: 0.00868 for the first, 1.01 for the second.

Compared with “TCGAACCCTTGGGTTCTAACCTGTTGCGA (site TCGAACCCTTC)”, “TCGAACCCTTGGGTTCTAACCTGTTGCGA (site TCGCACCCTTC)” is lower in “recombinant barcode read abundance (log10)” value: 0.927 for the first, 0.0454 for the second.

“TCGAACCCTTGGGTTCTAACCTGTTGCGA (site TCGGACCCTTC)” and “TCGAACCCTTGGGTTCTAACCTGTTGCGA (site TCGTACCCTTC)” are within 0.2 log units of each other in “recombinant barcode read abundance (log10)” value: 0.114 for the first, 0.0144 for the second.

Going from “TCGAACCCTTGGGTTCTAACCTGTTGCTT (site GCGAACCCTAA)” to “TCGAACCCTTGGGTTCTAACCTGTTGCTT (site TCGAACCCTAA)”, the “recombinant barcode read abundance (log10)” value rises from 0.0343 to 0.258.

First: TCGAAGGCTTGGGTTCTAACCTGTTGCCT (site TCAAAGGCTAG)
Second: TCGAAGGCTTGGGTTCTAACCTGTTGCCT (site TCCAAGGCTAG)
The “recombinant barcode read abundance (log10)” value of the first is higher: 0.411 for the first, 0.0717 for the second.

Going from “TCGAAGGCTTGGGTTCTAACCTGTTGCCT (site TCGAAGGCTAG)” to “TCGAAGGCTTGGGTTCTAACCTGTTGCCT (site TCTAAGGCTAG)”, the “recombinant barcode read abundance (log10)” value falls from 0.382 to 0.0236.

“TCGAATCCTTGGGTTCTAACCTGTTGCCT (site TCGAAACCTAG)” and “TCGAATCCTTGGGTTCTAACCTGTTGCCT (site TCGAACCCTAG)” are within 0.2 log units of each other in “recombinant barcode read abundance (log10)” value: 0.0251 for the first, 0.0582 for the second.

“TCGAATCCTTGGGTTCTAACCTGTTGCCT (site TCGAAGCCTAG)” and “TCGAATCCTTGGGTTCTAACCTGTTGCCT (site TCGAATCCTAG)” are within 0.2 log units of each other in “recombinant barcode read abundance (log10)” value: 0.0385 for the first, 0.173 for the second.

“TCGAATGCTTGGGTTCTAACCTGTTGCCT (site TCGAATGCTAG)” and “TCGAATGCTTGGGTTCTAACCTGTTGCCT (site TCGGATGCTAA)” are within 0.2 log units of each other in “recombinant barcode read abundance (log10)” value: 0.0629 for the first, 0.0663 for the second.

“TCGACGCCTTGGGTTCTAACCTGTTGCTT (site ACGACGTCTAA)” and “TCGACGCCTTGGGTTCTAACCTGTTGCTT (site TCGACGCCTAA)” are within 0.2 log units of each other in “recombinant barcode read abundance (log10)” value: 0.0317 for the first, 0.145 for the second.

Compared with “TCGAGAGCTTGGGTTCTAACCTGTTGCTA (site TCGAGAGCTCG)”, “TCGAGAGCTTGGGTTCTAACCTGTTGCTA (site TCGAGAGCTTA)” is higher in “recombinant barcode read abundance (log10)” value: 0.183 for the first, 0.446 for the second.

“TCGAGTGCTTGGGTTCTAACCTGTTGCCT (site TCGAGTACTAG)” and “TCGAGTGCTTGGGTTCTAACCTGTTGCCT (site TCGAGTCCTAG)” are within 0.2 log units of each other in “recombinant barcode read abundance (log10)” value: 0.187 for the first, 0.19 for the second.

“TCGAGTGCTTGGGTTCTAACCTGTTGCCT (site TCGAGTGCTAG)” and “TCGAGTGCTTGGGTTCTAACCTGTTGCCT (site TCGAGTTCTAG)” are within 0.2 log units of each other in “recombinant barcode read abundance (log10)” value: 0.0982 for the first, 0 for the second.

First: TCGCAGACTTGGGTTCTAACCTGTTGCCT (site CCGCAGACTTG)
Second: TCGCAGACTTGGGTTCTAACCTGTTGCCT (site TCGCAGACTAG)
The “recombinant barcode read abundance (log10)” value of the first is higher: 0.54 for the first, 0.286 for the second.

“TCGCATTCTTGGGTTCTAACCTGTTGCAT (site TCGCATTCTAT)” and “TCGCATTCTTGGGTTCTAACCTGTTGCAT (site TCGCGTTCTAA)” are within 0.2 log units of each other in “recombinant barcode read abundance (log10)” value: 0.159 for the first, 0.198 for the second.

Compared with “TCGCGAACTTGGGTTCTAACCTGTTGCCT (site TCGCGAACTAG)”, “TCGCGAACTTGGGTTCTAACCTGTTGCCT (site TCGGGAACTAG)” is lower in “recombinant barcode read abundance (log10)” value: 0.252 for the first, 0 for the second.

“TCGCGTACTTGGGTTCTAACCTGTTGCAT (site GCTCGTACTAT)” and “TCGCGTACTTGGGTTCTAACCTGTTGCAT (site TCGCGTACTAT)” are within 0.2 log units of each other in “recombinant barcode read abundance (log10)” value: 0.0605 for the first, 0.189 for the second.

First: TCGCGTCCTTGGGTTCTAACCTGTTGCAA (site TAGCGTCCTGT)
Second: TCGCGTCCTTGGGTTCTAACCTGTTGCAA (site TCGCGTCCTTT)
The “recombinant barcode read abundance (log10)” value of the first is lower: 0.119 for the first, 0.402 for the second.

“TCGCGTCCTTGGGTTCTAACCTGTTGCAG (site TCACGTCCTCT)” and “TCGCGTCCTTGGGTTCTAACCTGTTGCAG (site TCGCGTCCTCT)” are within 0.2 log units of each other in “recombinant barcode read abundance (log10)” value: 0.231 for the first, 0.379 for the second.

Going from “TCGCGTGCTTGGGTTCTAACCTGTTGCGG (site CATTCCACTAG)” to “TCGCGTGCTTGGGTTCTAACCTGTTGCGG (site TCGCGTGCTCC)”, the “recombinant barcode read abundance (log10)” value rises from 0.0782 to 0.363.

First: TCGCGTTCTTGGGTTCTAACCTGTTGCTT (site TCGCATTCTAT)
Second: TCGCGTTCTTGGGTTCTAACCTGTTGCTT (site TCGCGTTCTAA)
The “recombinant barcode read abundance (log10)” value of the first is lower: 0.217 for the first, 0.677 for the second.

Going from “TCGCTAGCTTGGGTTCTAACCTGTTGCCT (site ACGCTAGCTAG)” to “TCGCTAGCTTGGGTTCTAACCTGTTGCCT (site CCGCTAGCTAG)”, the “recombinant barcode read abundance (log10)” value rises from 0.0632 to 0.4.
